# According to publication PMC9234671, “Molecular determinants of αVβ5 localization in flat clathrin lattices – role of αVβ5 in cell adhesion and proliferation” (Journal of Cell Science, 2022):
# Tests used:
# [1] = tested on: integrin β5 localization in PA-JEB/β4 keratinocytes; assay: Immunofluorescence: integrin β5 clustering in FAs/FCLs, PA-JEB/β4; type: cell-based, human
# Text: Fig. 3. Serine 759 and 762 are involved in regulating the localization of integrin β5. (A–C) Integrin β5 containing S759/762E or S759/762A mutations (A) were expressed in β5-deficient PA-JEB/β4 keratinocytes and the subcellular distribution of β5 was compared to β5-deficient keratinocytes expressing wild-type (WT) β5. Merged images show integrin β5 (green), vinculin (B) or clathrin (C) (red), actin (blue) and the cell nuclei (cyan). (D,E) Analysis of wild-type versus mutant integrin β5 clustering in FAs or FCLs. (F–I) PA-JEB/β4 keratinocytes were grown in 10% FCS-supplemented DMEM culture medium overnight and then treated with 5 nM calyculin A (Cal.A) or DMSO (vehicle control) for 30 min prior to fixation. Merged images show integrin β5 (green), vinculin (F) or clathrin (H) (red), actin (blue) and the cell nuclei (cyan), quantifications of β5 clustering in FAs or FCLs are shown in G,I. (J,K) Analysis of integrin β5 clustering in FAs or FCLs in PA-JEB keratinocytes after treatment with Cal.A. Representative confocal microscopy images are shown in Fig. S3. Scale bars: 20 μm. Data were obtained from three independent experiments. Total cells analyzed per condition: 109 (WT), 116 (S>E), 103 (S>A) (D), 81 (WT), 77 (S>E), 101 (S>A) (E), 126 and 123 (G), 111 and 101 (I), 106 and 102 (J), 115 and 109 (K). ****P<0.0001 (Mann–Whitney U-test). Box plots range from the 25th to 75th percentile; central line indicates the median; whiskers show smallest to largest value.
# PA-JEB/β4 keratinocytes were seeded on glass coverslips and cultured in complete KGM medium for 24 h, and then treated with DMEM plus 10% FCS for 24 h. Other cell lines were seeded on glass coverslips and cultured in DMEM plus 10% FCS. Cells were fixed with 2% paraformaldehyde (PFA) for 10 min, permeabilized with 0.2% Triton X-100 for 5 min, and blocked with PBS containing 2% bovine serum albumin (BSA; Sigma) for at least 30 min. Next, cells were incubated with the primary antibodies for 1 h at room temperature. Cells were washed three times before incubation with the secondary antibodies for 1 h. Additionally, nuclei were stained with DAPI, and filamentous actin was visualized using Alexa Fluor 488 or 647-conjugated phalloidin (Invitrogen). After three washing steps with PBS, the coverslips were mounted onto glass slides in Mowiol. Images were obtained using a Leica TCS SP5 confocal microscope with a 63× (NA 1.4) oil objective.
# Image analysis was performed using Fiji (ImageJ) ([Schindelin et al., 2012]; [Schneider et al., 2012]). To quantify integrin clustering in FAs (based on vinculin staining) versus FCLs (clathrin staining), background was subtracted in both channels using a bilateral filter and the region of interest (ROI) was selected at the cell periphery. Colocalization of integrin clusters and FAs or FCLs was determined using the Image Calculator (command ‘multiply’) on both channels and calculating the area of overlapping clusters as a percentage of the total integrin cluster area per cell using the Analyze Particle function.
# [2] = tested on: phosphorylated MLC in PA-JEB/β4 keratinocytes; assay: Western blot: cell tension (phosphorylated myosin light chain); type: cell-based, human; settings: nocodazole
# Method: Proteins were separated by electrophoresis using a Bolt Novex 4–12% gradient Bis-Tris gels (Invitrogen) or 15% SDS-PAGE gels (made in-house), transferred to Immobilon-P transfer membranes (Millipore Corp) and blocked for at least 30 min in 2% BSA in TBST buffer (10 mM Tris-HCl pH 7.5, 150 mM NaCl and 0.3% Tween-20). Primary antibody (diluted 1:1000 in 2% BSA in TBST buffer) incubation took place overnight at 4°C. After washing twice with TBST and twice with TBS, blots were incubated for 1 h hour at room temperature with horseradish peroxidase-conjugated goat anti-mouse-IgG or goat anti-rabbit-IgG (diluted 1:3000 in 2% BSA in TBST buffer). After subsequent washing steps, the bound antibodies were detected by enhanced chemiluminescence using SuperSignal™ West Dura Extended Duration Substrate (ThermoFisher) or Clarity™ Western ECL Substrate (Bio-Rad) as described by the manufacturer. Signal intensities were quantified using ImageJ.
# Fig. S4. (A) Representative western blots of phosphorylated myosin light chain (MLC) and GAPDH in PA-JEB/β4 keratinocytes treated with DMSO versus Nocodazole. […]
# μm. Quantifications of β5 or β5 mutants clustering in FAs are shown in (C-E). […] Total cells analyzed per condition: 90 (WT, DMSO), 111 (WT, Noco.) (C), 40 (S>E, DMSO), 80 (S>E, Noco.) (D), 65 (S>A, DMSO), 82 (S>A, Noco.) (E). […]
structure (smiles),measurement,setting,value
COC(=O)Nc1nc2ccc(C(=O)c3cccs3)cc2[nH]1 [nocodazole],localization of β5 in FCLs,[1]; nocodazole,inhibits the localization of β5 in FCLs
same,localization of β5 within FAs and FCLs,"[1]; nocodazole versus DMSO, three independent experiments",significant shift in the localization of β5 from FCLs to FAs
same,localization of phospho-inhibitory β5 mutant,"[1]; nocodazole, β5-deficient keratinocytes expressing β5-S759/762A",neither of their localizations were altered
same,localization of phospho-mimetic β5 mutant,"[1]; nocodazole, β5-deficient keratinocytes expressing β5-S759/762E",neither of their localizations were altered
same,cell tension,[2],increased cell tension
